Measurements from patent US9212349B2, “Method to produce virus in cultured cells” (priority 2011, dated 2015).

Assays:
[1] = tested on: VZV; assay: Yield of cell-free infectious VZV from infected MRC5 cells, plaque assay on ARPE-19 cells; type: cell-based, varicella zoster virus; settings: for VZV yield, fold change relative to NT / VZV yield in comparison to no treatment: MOI 1:50, 72 h; for VZV yield in comparison to no treatment: Example 5, lipids at 6 hpi plus 10 μM αT, HSA, OSA 25 μM, sonicated immediately
Protocol: For this test, MRC5 cells (passage 20-25) were seeded at a density of 300.000 cell/100 mm culture dish and grown in 15 ml of DMEM containing 10% fetal calf serum plus 2 mM glutamax (Invitrogen) at 35° C. A lipid mixture (LM-1, 1 ml/liter medium, Sigma Aldrich #L5146) was added to the cells either at the time of seeding or 1 day after seeding. Three days later, the culture medium was replaced with 10 ml growth medium containing 50 mM sucrose as a stabilizer. The cells were further incubated for 3 days and growth medium was replaced with fresh medium containing no sucrose. After cells reached confluence, they were infected with VZV by adding infected cells (1 infected cell/50 uninfected cells; infected cells were from a preparation frozen in a solution of 10% DMSO plus 90% fetal calf serum and stored in liquid nitrogen). At the time of infection, the cultures were re-fed with DMEM containing 10% fetal calf serum plus 2 mM glutamax. Arachidonic acid (AA)+alpha-tocopherol (αT) or DHA+αT were added at the indicated times. 72 hours after infection, cells were washed twice with PBS, and incubated in 10 ml of PBS containing 50 mM ammonium chloride for 50 minutes at 4° C. The cells were harvested and frozen in PSGC buffer (Harper et al., Arch Virol 143:1163-70, 1998) at −80° C. Infectious virus was subsequently quantified by plaque assay of sonicated cells on ARPE-19 cells (American Type Culture Collection). Results are set out in FIG. 3.
Briefly, in these repeat experiments, MRC5 cells were infected with VZV at an MOI=1:50. AA, DHA, and αT were added to the cells at 6 hpi as indicated. 72 hours after infection, the cells were harvested into PSGC buffer and frozen at −80° C. for later processing. After thawing, the cells were sonicated and the yield of cell free VZV quantified by standard plaque assay on ARPE-19 cells. Fold change relative to no treatment (NT) is shown. […] The fold-changes are the average of two independent infections.
In brief, MRC5 cells were infected with VZV at an M01=1:50. Lipid mixture 1(LM-1) was added to the cells immediately after cell seeding. At 6 hours after infection, up to about 100 μM AA or […] was added to cells together with up to about 10 μM αT. 72 hours after infection, the cells were harvested into PSGC buffer and either frozen at −80° C. and sonicated later for the release of virus (frozen cells) or immediately sonicated after harvesting and supernatants containing the cell-free VZV were frozen at −80° C. (frozen sup.) prior to titration. Cell-free VZV yield was quantified by plaque assay on APRE-19 cells. Fold change relative to no treatment (NT) is shown. The numbers above the bars indicate the amount of virus obtained per ml in the corresponding treatment. The results are set out in FIG. 5.
Briefly, MRC5 cells were infected with VZV at an MOI=1:50. Six hours after infection cells were treated with indicated combinations of lipids plus 10 μM αT. Hexacosanoic acid (HSA) and octacosanoic acid (OSA) were dissolved in 20 mg/ml α-cyclodextin (Sigma-Aldrich) in PBS by sonication and added to a solution of 10 mg/ml fatty acid-free BSA (Sigma-Aldrich) in PBS (1:1, v/v) to give a stock concentration of 10 mM for each fatty acid. HSA, OSA, and DHA were used at 25 μM, and AA was used at 25 μM. Two sets of fatty acid concentrations was used for combination treatments: DHA, AA, and HSA was either added at concentrations of 25 μM, 100 μM, and 25 μM (high), or 10 μM, 50 μM, and 10 μM (low), respectively. 72 hours after infection, the cells were harvested into PSGC buffer, sonicated immediately and the yield of cell free VZV quantified by plaque assay on ARPE-19 cells. Fold change relative to no treatment (NT) is shown. The fold-changes are the average of two independent infections.
Briefly, MRC5 cells were grown in DMEM containing 10% fetal calf serum, 2 mM glutamax (Invitrogen) at 35° C. as described in the text. […]

[2] = tested on: VZV; assay: as above; type: cell-based, varicella zoster virus; settings: Example 6; MOI 1:100, 72 hours after infection; HSA, DHA 25 μM, AA 100 μM, with 10 μM α-T; cholesterol 13 μM
[3] = tested on: HCMV (AD169 strain); type: cell-based, human cytomegalovirus; settings: for HCMV yield, fold change relative to no treatment (NT): MRC5, 0.5 IU/cell, additive 2 h after infection, OA/LA/LLA up to 100 μM, EPA 75 μM, DHA 50 μM, AG 250 μM, cholesterol 13 μM; for HCMV yield, fold change relative to no treatment (NT) / HCMV production relative to no treatment: 96 h; for Effect of including the fatty acid on the HCMV yield increase given by aminoguanidine: in the presence of aminoguanidine; for HCMV production relative to no treatment: Example 2, MRC5, 0.5 IU/cell, FIG. 2
Protocol: Cells were infected with the AD169 strain of HCMV at a multiplicity of 0.5 infectious units/cell, and immediately following a 2-hour adsorption period, cells were fed with medium (Dulbecco's Modified Eagle Medium, DMEM) containing 10% fetal calf serum plus various fatty acids, cholesterol and carbonyl scavenging compound. At 96 hours post infection, infectious virus in the medium was assayed by fluorescent focus assay using antibody to the HCMV IE1 protein.
Briefly, About 90% confluent MRC5 human fibroblasts were infected with HCMV at a multiplicity of 0.5 IU/cell. Two hours after infection, medium was replaced with fresh medium containing 10% fetal calf serum and either of oleic acid (OA, up to about 100 μM), linoliec acid (LA, up to about 100 μM), α-linolenic acid (LLA, up to about 100 μM), eicosapentaenoic acid (EPA, up to about 75 μM), or docosahexaenoic acid (DHA, up to about 50 μM). The experiment was also performed in the presence of either aminoguanidine (AG, up to about 250 μM) or cholesterol (chol., up to about 13 μM). Virus production at 96 hours after infection was determined by fluorescent focus assay in MRC-5 cells and shown as a fold change relative to no treatment (NT) which was 5×10^5 infectious units. The fold-changes are the average of two independent infections.
Briefly, about 90% confluent MRC5 fibroblasts were infected with HCMV at a multiplicity of 0.5 IU/cell. Two hours after infection, medium was replaced with fresh medium containing 10% fetal calf serum and α-tocopherol (α-T) or aminoguanidine (AG) at indicated concentrations. Virus production at 96 h after infection was determined by fluorescent focus assay in which MRC-5 cells and shown as a fold change relative to no treatment (NT). The fold-changes are the average of two independent infections. Results are set out in FIG. 2.

[4] = tested on: MRC5 cells; assay: Cytotoxicity evident upon visual inspection in VZV-infected MRC5 cells; type: cell-based, human; settings: 100 μM
[5] = 25 μM fatty acid at 6 hpi, absence of αT

CCCCC/C=C\C/C=C\C/C=C\C/C=C\CCCC(=O)O [AA, Arachidonic acid]
VZV yield, fold change relative to NT [1, 5]: enhanced the yield of virus | VZV yield, fold change relative to NT ([1]; 25 μM fatty acid at 6 hpi, presence of αT): increased the virus yield | VZV yield, fold change relative to NT ([1]; 100 μM fatty acid at 6 hpi, absence of αT): inhibited virus production | VZV yield, fold change relative to NT ([1]; 100 μM fatty acid at 6 hpi, presence of αT): 5 fold | VZV yield relative to no treatment [2]: elevated the yield of VZV

CC/C=C\C/C=C\C/C=C\C/C=C\C/C=C\C/C=C\CCC(=O)O [DHA, docosahexaenoic acid]
HCMV yield, fold change relative to no treatment (NT) [3]: 4.6 fold | VZV yield, fold change relative to NT [1, 5]: about 1.5 fold | Cytotoxicity ([4]; absence of αT): toxic | Cytotoxicity ([4]; presence of αT): toxic

CC/C=C\C/C=C\C/C=C\C/C=C\C/C=C\CCCC(=O)O [EPA, eicosapentaenoic acid]
HCMV yield, fold change relative to no treatment (NT) [3]: 2.5 fold

CCCCCCCCCCCCCCCCCCCCCCCCCC(=O)O [HSA, hexacosanoic acid]
VZV yield in comparison to no treatment [1]: improved virus yields | VZV yield relative to no treatment [2]: elevated the yield of VZV

CCCCCCCC/C=C\CCCCCCCC(=O)O [OA, oleic acid]
HCMV yield, fold change relative to no treatment (NT) [3]: reduced the yield | Effect of including the fatty acid on the HCMV yield increase given by aminoguanidine ([3]; MRC5, 96 h): reduced | Reduction of VZV production, factor ([1]; 100 μM): 2 fold | Cytotoxicity ([4]; absence of αT): without causing observable cellular toxicity

Cc1c(C)c2c(c(C)c1O)CC[C@@](C)(CCC[C@H](C)CCC[C@H](C)CCCC(C)C)O2 [αT, alpha-tocopherol]
HCMV production relative to no treatment [3]: enhances the production of HCMV

N=C(N)NN [aminoguanidine]
HCMV production relative to no treatment [3]: enhances the production of HCMV | HCMV yield, fold change relative to no treatment (NT) [3]: about 2.6 fold

CCCCC/C=C\C/C=C\CCCCCCCC(=O)O [LA, linoleic acid]
HCMV yield, fold change relative to no treatment (NT) [3]: little effect on the yield | Effect of including the fatty acid on the HCMV yield increase given by aminoguanidine ([3]; MRC5, 96 h): reduced

CCCCCCCCCCCCCCCCCCCCCCCCCCCC(=O)O [OSA, octacosanoic acid]
VZV yield in comparison to no treatment [1]: improved virus yields

CC/C=C\C/C=C\C/C=C\CCCCCCCC(=O)O [LLA, α-linolenic acid]
HCMV yield, fold change relative to no treatment (NT) [3]: about 1.2 fold | Effect of including the fatty acid on the HCMV yield increase given by aminoguanidine ([3]; MRC5, 96 h): reduced

CC(C)CCC[C@@H](C)[C@H]1CC[C@H]2[C@@H]3CC=C4C[C@@H](O)CC[C@]4(C)[C@H]3CC[C@]12C [cholesterol]
HCMV yield, fold change relative to no treatment (NT) [3]: no effect | Effect of cholesterol on the enhancing effects of fatty acids on HCMV yield ([3]; MRC5, 96 h, cholesterol up to about 13 μM): did not improve, and in some cases inhibited
